From patent US6194451A, “Matrix metalloproteinase inhibitors” (Pharmacia & Upjohn S.p.A., priority 1997, dated 2001)

Experiments:
[1] = molecular target: T1, MMP-3 (human stromelysin-1) (Homo sapiens, UniProt P08254); assay: Biochemical Assay (Protocol A): inhibition of human stromelysin-1, fluorimetric peptide substrate; conditions: MMP-3, pH 7.4, 37° C.
T1 construct: host or cells: E. coli or baculovirus-infected Sf9 insect cells
Text: (§1) As mentioned above, although low molecular weight MMP inhibitors, including hydroxamates of general formula (A), are already known, there is a strong need for better and diversified molecules for their use in medicine, that is in particular in the control or prevention of degenerative joint diseases such as rheumatoid arthritis and osteoarthritis, or in the management of multiple sclerosis, or in the treatment of invasive tumors. […] For example, the following protocol was used to assess the biochemical activity of compounds of formula (I) against MMP-1, MMP-2, and MMP-3 (respectively, human interstitial collagenase, gelatinase A, and stromelysin-1).
(§2) Human gelatinase-A (MMP-2) was obtained as pro-enzyme (72 kDa) and was activated with 1 mM 4-aminophenylmercuric acetate for 30 min at 37° C. immediately prior to use. Human stromelysin-1 (MMP-3) was obtained as a recombinant pro-enzyme isolated either from E. coli or from baculovirus infected Sf9 insect cells and activated either by heat (1 h, 55° C.) or by 5 mg/l trypsin (30 min, 37° C.) before addition of soybean trypsin inhibitor, finally removed by centrifugation.
(§3) All enzyme assays to determine values of the enzyme-inhibitor dissociation constants were performed using the peptide substrate (7-methoxycoumarin-4-yl)Acetyl-Pro-Leu-Gly-Leu-(3-[2,4-dinitrophenyl]-L-2,3-diaminopropionyl)-Ala-Arg-NH2 (Mca-Pro-Leu-Gly-Leu-Dpa-Ala-Arg--NH2) (C. G. Knight et al., FEBS Lett. 296:263-266, 1992). The enzymes cleave at the Gly-Leu bond removing the internally quenching Dpa group. The release of the highly fluorescent peptide Mca-Pro-Leu was followed fluorimetrically setting the excitation wavelength at 326 nm (bandwidth 5 nm) and the emission at 392 nm (bandwidth 20 nm).
(§4) Continuous fluorescence assay was carried out using a Perkin Elmer LS-50 Fluorescence Spectrophotometer fitted with a thermostatted four position stirring cell changer. Inhibitors were dissolved in the assay buffer ([…] Tris/HCl pH 7.4 containing 0.15 M NaCl, 10 mM CaCl2, 0.01 mM ZnCl2 and 0.05% Brij 35) thermostatted at 37° C. The reaction was started by the addition of substrate ([…]), followed by the addition of the enzyme (e.g. 1.0 nM collagenase, 0.04 nM gelatinase, or 3.0 nM stromelysin) and the increase in fluorescence was monitored over 30 min. The run was repeated at different concentrations of inhibitors in the range 0.1-10000 nM and data at inhibitor concentration in the region if their enzyme-inhibitor dissociation constants were used for calculation.
(§5) Substrate consumption was within 5% of the initial concentration and data outside this range were discarded. The Michaelis constants (Km) for the enzyme-substrate complexes is […] or greater (C. G. Knight et al., reference above), so that the factor (1+S/Km) can be approximated to unity without appreciable error.

[2] = molecular target: T2, MMP-2 (human gelatinase A) (Homo sapiens, UniProt P08253); assay: Biochemical Assay (Protocol A): inhibition of human gelatinase A, fluorimetric peptide substrate; conditions: MMP-2, pH 7.4, 37° C.
T2 sequence (P08253 110-660): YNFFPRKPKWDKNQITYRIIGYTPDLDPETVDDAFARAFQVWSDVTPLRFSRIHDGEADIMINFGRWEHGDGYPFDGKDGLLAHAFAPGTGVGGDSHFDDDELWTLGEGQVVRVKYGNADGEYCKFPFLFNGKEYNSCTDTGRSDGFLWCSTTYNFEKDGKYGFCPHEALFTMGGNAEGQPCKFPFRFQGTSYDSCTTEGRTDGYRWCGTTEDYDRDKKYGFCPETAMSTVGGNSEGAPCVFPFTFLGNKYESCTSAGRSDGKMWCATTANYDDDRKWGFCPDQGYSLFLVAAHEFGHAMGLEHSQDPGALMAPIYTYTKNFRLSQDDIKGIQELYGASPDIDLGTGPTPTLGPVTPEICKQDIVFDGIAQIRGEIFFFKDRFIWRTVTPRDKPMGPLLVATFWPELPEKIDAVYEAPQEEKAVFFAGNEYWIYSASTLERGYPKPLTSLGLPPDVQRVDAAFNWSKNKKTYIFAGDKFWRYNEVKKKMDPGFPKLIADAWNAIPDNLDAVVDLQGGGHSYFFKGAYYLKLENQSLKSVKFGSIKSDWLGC
Text: as §1, §2, §3, §4, §5

[3] = molecular target: T3, MMP-1 (human interstitial collagenase) (Homo sapiens, UniProt P03956); assay: Biochemical Assay (Protocol A): inhibition of human collagenase, fluorimetric peptide substrate; conditions: MMP-1, pH 7.4, 37° C.
T3 construct: truncated recombinant enzyme encompassing residues 101-269
T3 sequence (P03956 101-269): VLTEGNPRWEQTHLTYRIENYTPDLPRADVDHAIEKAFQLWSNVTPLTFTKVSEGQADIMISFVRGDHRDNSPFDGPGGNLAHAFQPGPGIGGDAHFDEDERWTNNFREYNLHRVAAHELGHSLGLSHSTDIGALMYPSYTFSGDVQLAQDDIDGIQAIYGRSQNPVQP
Text: as §1, §2, §3, §4, §5

[4] = tested on: release of TNF from THP-1 cells; assay: Cellular Assay (Protocol B): inhibition of release of TNF from LPS-stimulated THP-1 cells; type: cell-based; conditions: Homo sapiens, LPS 5 microg/mL, 4 h
Method: For example, the following cell-based assay was used to assess such activity:
THP-1 cells, cultured in RPMI 1640 supplemented with 10% FCS, were distributed into 24-well plates, 1 mL of a suspension of 1×10^6 cells/mL in each well. Compounds to be tested, dissolved in DMSO and diluted with the culture medium (1% final DMSO concentration) were added. Plates were incubated for 30 min at 37° C. in 5% CO2, and lipopolisaccharide (LPS 0111:B4, 5 microg/mL) was added as a stimulant. After a further 4 h incubation, cells were harvested, centrifuged (2,000 rpm, 7 min), and the surnatant was collected and freezed (-20° C.) until analysis. Analysis was run by classical ELISA methodology (monoclonal anti-TNF-a antibody, rabbit capture policlonal antibody, and peroxidated anti-rabbit antibody).

T1 sequence (P08254 100-477): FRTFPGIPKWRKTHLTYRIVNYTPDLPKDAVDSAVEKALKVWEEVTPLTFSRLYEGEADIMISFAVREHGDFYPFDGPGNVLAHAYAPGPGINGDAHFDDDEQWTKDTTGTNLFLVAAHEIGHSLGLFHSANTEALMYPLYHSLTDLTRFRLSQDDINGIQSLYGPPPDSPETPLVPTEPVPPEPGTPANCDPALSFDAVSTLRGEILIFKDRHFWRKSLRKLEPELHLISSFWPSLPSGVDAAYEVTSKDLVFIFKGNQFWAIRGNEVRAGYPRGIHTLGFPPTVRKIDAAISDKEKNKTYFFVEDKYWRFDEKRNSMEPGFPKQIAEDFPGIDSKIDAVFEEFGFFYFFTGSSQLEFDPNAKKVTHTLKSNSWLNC

Ki [1]: 150 nM
Ki [2]: 9.2 nM
Ki [3]: 2.3 nM
IC50 [4]: 8100 nM
SMILES: CNC(=O)[C@@H](NC(=O)[C@H](CC(C)C)[C@](O)(CO)C(=O)NO)C(C)(C)C [Example 3]
